Source: patent US9463188B2, “Osteopontin production inhibitor containing dictyopyrone derivative or dihydrodictyopyrone derivative as active ingredient” (TOHOKU UNIVERSITY, priority 2013, dated 2016)

Tested on: human non-small cell lung cancer-derived cell line A549
Assay: Wound-Healing assay
Format: cell-based
Conditions: A549 cells, 2 days after injury
Excerpt: In the next stage, a determination was made as to whether or not the physiological function of cells induced by OPN production was suppressed by the compound 3 as a test compound. The determination was made by performing cell Wound-Healing assay. This assay is commonly known as a method for evaluating cell migration capacity. When a wound is made in a cell monolayer by scratching some cells with a pipette tip or the like, the wound is closed by migration of cells around the wound. The influence of a test compound on such function was observed by adding the test compound to a cell culture liquid. […]
Based on the taken images, the areas of the wounds were determined using Image-Pro Plus 7.0J (MediaCybernetics). Then, a wound healing rate (%) was calculated based on the following calculation formula: Wound healing rate (%)=100−[area of wound after 2 days from injury/area of wound just after injury]×100. The average wound-healing rates (%) of the control group and the two compound 3-treated groups at different concentrations were calculated. Further, the percentage of the wound-healing rate of the compound-treated group with respect to the wound-healing rate of the control group was also calculated.
The statistical processing of calculated values of the wound-healing rate was performed using Excel statistics, Statcel 3. […]

SMILES: CCCCCCCCCCCC(=O)[C@H]1C(=O)O[C@@H](C)C[C@@H]1C [Chemical formula 3]
- wound-healing rate vs control group (12.5 μmol/L): no difference
- wound-healing rate vs control group (25 μmol/L, significance level less than 1%): significantly suppressed
